# Patent US11458132B2, “Quinolin-2(1H)-one inhibitors of Late SV40 Factor” (TRUSTEES OF BOSTON UNIVERSITY, priority 2020, dated 2022)
# Assays:
# [1] = system: RPE cells; assay: Microtubule sedimentation assay; type: cell-based
# Description: Cell lysate preparation: For microtubule sedimentation assays, cells were treated as indicated in the figure legends, washed with PBS and incubated in 250 μl of microtubule sedimentation assay lysis buffer (100 mM PIPES pH 6.8, 2 M glycerol, 2 mM EGTA, 5 mM MgCl2, 0.1% Triton X-100) supplemented with 1 μM taxol, protease inhibitor cocktail (1:200, Abcam, ab201111) and phosphatase inhibitor cocktail (1:100, Abcam, ab201115) for 20 minutes at 37° C. Two hundred μl of scraped lysate was centrifuged at 21,000×g for 10 minutes at room temperature. Supernatants were saved as soluble fractions. Pellets were resuspended in 200 μl RIPA buffer (50 mM Tris HCl pH 8.0, 150 mM NaCl, 1% IGEPAL CA630, 0.05% deoxycholic acid) supplemented with 1.05% SDS, protease inhibitor cocktail (1:200) and phosphatase inhibitor cocktail (1:100) and incubated at 100° C. for 15 minutes. Pellet suspensions were centrifuged as before and supernatants were saved as pellet fractions.
# (§1) Gel electrophoresis and immunoblotting: Microtubule sedimentation fractions and MLC2 analysis samples were separated by electrophoresis through tris-glycine and tricine polyacrylamide gels, respectively, which were transferred to PVDF membranes. Membranes with microtubule sedimentation fractions and MLC2 analysis samples were blocked in 5% milk in TBST and in 5% BSA in TBST, respectively. After overnight incubation with primary antibody at 4° C., the membranes were washed and incubated with secondary antibody for 1 hour at room temperature. Primary antibodies included anti-α-tubulin (1:2,000, Thermo Fisher Scientific, PA529444), anti-acetylated tubulin (1:1,000, Sigma-Aldrich, T7451), anti-phospho MYL9 (1:200, Thermo Fisher Scientific, PA517727), and anti-β-actin (1:5,000, Sigma-Aldrich, A1978). Secondary antibodies included Goat anti-Rabbit HRP (Thermo Fisher Scientific, 31460; 1:10,000 for anti-α-tubulin; 1:5,000 for anti-phospho MYL9), and Goat anti-Mouse HRP (Thermo Fisher Scientific, 62-6520; 1:5,000 for anti-acetylated tubulin; 1:10,000-1:20,000 for anti-β-actin). Membranes were placed into Pierce™ ECL Western Blotting Substrate (Thermo Fisher Scientific, 32106). Autoradiography film was exposed to each membrane for various times to ensure acquisition of non-saturated exposures. Band intensities were quantified from scanned films by densitometry using ImageJ.
# [2] = system: RPE cells; assay: Analysis of microtubule features by immunofluorescence; type: cell-based
# Description: Analysis of microtubule features by immunofluorescence: Because Y-27632 diminishes FQI1-induced cell compaction (FIGS. 10C and 10D) without affecting microtubule levels (FIGS. 9A and 9B), cells were pretreated with Y-27632 in order to maintain overall cellular shape, facilitating capture of structural or positional impact of FQI1 on microtubules. In addition, only cells with cell spreading areas larger than 1000 μm^2 were considered. Cells were seeded overnight in high n-dishes, treated as indicated in the figure legends, fixed with formaldehyde as described above, blocked in 5% BSA in PBS and stained overnight at 4° C. with anti-γ-tubulin (1:500, Abcam, ab11316) and anti-α-tubulin (1:500, Fisher Scientific, 62204). Samples were then incubated in goat anti-rabbit Cy5 (1:1000, Invitrogen, A10523), goat anti-mouse Alexa Fluor 546 (1:1000, Thermo Fisher Scientific, A11003), and Phalloidin-iFluor 488 Reagent. Hoechst 33342 and mounting medium were applied, before acquiring Z stack images at 60× magnification on an Olympus Fluoview 10i microscope.
# Using ImageJ, binary Z projections of Phalloidin and Hoechst channel stacks were merged with Z projections with average intensity of the α-tubulin channels. The Phalloidin channel was used as the region of interest for measurement of “integrated density” of the total α-tubulin intensity, which was plotted into swarmplots.
# To assess distribution of visible microtubule ends, the Hoechst, γ-tubulin, and α-tubulin stacks were converted into Z projections with maximum intensity. The Hoechst and γ-tubulin Z projections were thresholded and all channels were merged. A line was generated between the γ-tubulin signal and the center of the nucleus to identify the axis of cell movement; a line perpendicular to the first line and running through the center point of the nucleus divided the cell into posterior and anterior portions. Visible microtubule ends were counted using the Cell Counter plugin, excluding unattached microtubule fragments.
# [3] = system: RhoA/ROCK pathway in FH-B cells; assay: Phospho-MLC2 immunoblot (RhoA/ROCK pathway); type: cell-based, human; conditions: 4 μM FQI1, 10 minutes
# Description: For analysis of phosphorylated MLC2, FH-B cells were treated as indicated in the figure legend, washed with PBS and incubated for 5 minutes in lysis buffer (50 mM Tris-HCl pH 8.0, 50 mM NaF, 5 mM MgCl2, 150 mM NaCl, 1% Triton X-100) supplemented with Tricine Sample Buffer (Bio-rad, 1610739), protease inhibitor cocktail (1:200), phosphatase inhibitor cocktail (1:100), and 1% ([…]. Lysates were incubated at 100° C. for 15 minutes and centrifuged at 21,000×g for 10 minutes prior to SDS-PAGE.
# as §1, with “Secondary antibodies included Goat anti-Rabbit HRP (Thermo Fisher Scientific, 31460; 1:10,000 for anti-α-tubulin; 1:5,000 for anti-phospho MYL9), and Goat anti-Mouse HRP (Thermo Fisher Scientific, 62-6520; 1:5,000 for anti-acetylated tubulin; 1:10,000-1:20,000 for anti-β-actin). Membranes were placed into Pierce™ ECL Western Blotting Substrate (Thermo Fisher Scientific, 32106). Autoradiography film was exposed to each membrane for various times to ensure acquisition of non-saturated exposures.” left out
compound,measurement,setting,value
"CCOc1ccccc1C1CC(=O)Nc2cc3c(cc21)OCO3 (stereo not drawn) [FQI1, 8-(2-ethoxyphenyl)-7,8-dihydro-[1,3]dioxolo[4,5-g]quinolin-6(5H)-one]",time after addition at which a drop in pelleted tubulin is observed,[1]; 4 μM FQI1,1 min
same,microtubule stability and α-tubulin acetylation in the microtubule fraction,"[1]; 4 μM FQI1 (15- and 30-minute pellets), 1 μM nocodazole or taxol 30 minutes",increase in the amount of acetylated α-tubulin in the microtubule fraction
same,front-rear pattern of visible microtubule ends,[2]; 4 μM FQI1,shifted to a more anterior distribution
same,overall α-tubulin intensity,"[2]; 4 μM FQI1, 10 minutes, Y-27632 pretreated",significant decrease in overall α-tubulin intensity
same,increase in the number of individually discernible microtubule ends,"[2]; 4 μM FQI1, 10 minutes, vs vehicle",2.5 fold
same,phosphorylation of MLC2,[3],elevated
